In paper PMC10518255, “A first-in-class pan-lysyl oxidase inhibitor impairs stromal remodeling and enhances gemcitabine response and survival in pancreatic cancer” (Nature Cancer, 2023):
Several values for one entry are separate records, joined by “and”; a condition that tells them apart may be missing. Identical values can stand only once.

System: KPC CAFs
Test: 3D organotypic matrix contraction assay
Format: cell-based, mouse
Parameters: measured area of matrices: unit not given here
Conditions: for measured area of matrices: per replicate, n = 3
Procedure: Fig. 3 PXS-5505 inhibition of CAF remodeling in vitro. a, Quantitative PCR with reverse transcription (qRT–PCR) showing in vitro comparison of KPC CAF relative expression of lysyl oxidase family members compared to KPC CCs from the same model (n = 3 biologically independent samples). Comparisons were determined by 2^–∆∆Ct approach. b, Representative images of 3D organotypic matrix contraction assay at days 2, 6 and 12 in the absence (gray) or presence (pink) of PXS-5505 (30 µM). Scale bars, 5 mm. Comparison of measured area of matrices between control and PXS-5505 treatment groups over time (n = 3 technical samples examined over three biologically independent samples). Data are mean ± s.d. c, Concentration of immature divalent DHLNL and mature trivalent Pyr collagen crosslinks determined by LC–MS from control and PXS-5505-treated organotypic matrices at day 12 (n = 3 technical samples examined over two biologically independent samples). Data are mean ± s.d. […] Data are presented as mean ± s.d. […] Comparison of number of CCs invaded per field of view (FOV) as determined by H&E and PanCK staining (nine images taken from three technical samples from each of three biologically independent contracted matrices), normalized to control. Data are mean ± s.d. Scale bars, 100 μm. […] Source data
High-purity rat tail collagen for 3D organotypic assays was acid extracted following previously published methodology. The 12-day organotypic assays were carried out as described previously. In brief, 2 × 10^5 KPC CAFs were embedded in 2.5 ml 1.5 mg ml^−1 rat tail collagen and allowed to remodel for 12 days in a six-well plate in DMEM supplemented with 10% FBS and 1% penicillin–streptomycin in 21% O2/5% CO2 (Extended Data Fig. 4a). For human pancreatic cancer CAFs, 3.45 × 10^5 cells were embedded into 1.25 ml 1.5 mg ml^−1 rat tail collagen and allowed to remodel for 12 days in a 12-well plate in IMDM supplemented with 4 mM glutamine and 10% FBS in 21% O2/5% CO2.
Extended Data Fig. 4 PXS-5505 inhibits collagen cross-linking by PDAC CAFs in vitro resulting in decreased cancer cell invasion. a. Schematic of organotypic matrix remodeling assay whereby CAFs are embedded into a 3D collagen matrix and growth media supplemented with or without PXS-5505 to inhibit lysyl oxidase family activity b. Chemical structures of lysyl oxidase family catalyzed hydroxyallysine or allysine residues and the subsequent divalent and trivalent bonds that are formed that can be quantified by mass spectrometry. c. Representative images of 3D organotypic matrix contraction by human pancreatic cancer CAFs at days 2, 6 and 12 in the absence (gray) and presence (pink) of PXS-5505 (30 µM). Scale bars = 5 mm. […] Data presented as mean values +/− SD. d. […] Data presented as mean values +/− SD. Relative fold expression of LOXL family members compared to LOX were determined by 2^–∆∆Ct approach. f. Schematic of cancer cell invasion in a 3D organotypic matrix assay whereby cancer cells are seeded to the surface of a remodeled collagen plug and placed at an air–liquid interface and allowed to invade into the remodeled matrix. […] Scale bars = 100 μm. g. […] Representative images of 3D organotypic matrix contraction assay at days 2, 6 and 12 of control (gray) and presence of PXS-5120 (blue) and PXS-5505 (pink). Scale bars = 5 mm. Comparison of measured area of matrices between control, PXS-5120 and PXS-5505 treatment groups (n = 3) over time. i. […] Representative images of invasion of KPC cancer cells into a contracted organotypic matrix as determined by H&E staining. […] Source data

Cl.Cl.NC/C=C(\F)CS(=O)(=O)c1cccc2cccnc12.O [PXS-5505, (Z)-3-fluoro-4-(quinolin-8-ylsulfonyl)but-2-en-1-amine dihydrochloride monohydrate]
matrix contraction (KPC CAFs, PXS-5505 30 µM, days 2, 6 and 12): no macroscopic effect on matrix contraction
measured area of matrices (time 0 (unit of time not given)): 9.616
measured area of matrices (time 1 (unit of time not given)): 9.616
measured area of matrices (time 2 (unit of time not given)): 9.561 and 9.616 (2×)
measured area of matrices (time 3 (unit of time not given)): 9.0213 and 9.561 and 9.616
measured area of matrices (time 4 (unit of time not given)): 6.466 and 5.808 and 8.601
measured area of matrices (time 5 (unit of time not given)): 4.597 and 3.696 and 6.971
measured area of matrices (time 6 (unit of time not given)): 3.299 and 2.6 and 5.471
measured area of matrices (time 7 (unit of time not given)): 2.954 and 2.216 and 4.409
measured area of matrices (time 8 (unit of time not given)): 2.6 and 1.886 and 3.595
measured area of matrices (time 9 (unit of time not given)): 1.96 and 1.5386 and 2.216
measured area of matrices (time 10 (unit of time not given)): 1.327 and 1.266 and 1.583
measured area of matrices (time 11 (unit of time not given)): 1.149 and 1.168 and 1.41
measured area of matrices (time 12 (unit of time not given)): 1.075 and 1.112 and 1.188
